These results are taken from ChEMBL document CHEMBL1255420, “Fluoroquinolone resistance in Streptococcus dysgalactiae subsp. equisimilis and evidence for a shared global gene pool with Streptococcus pyogenes” (2010).

SMILES strings stand for the structures.

In assay [1] the test system is Streptococcus dysgalactiae subsp. equisimilis. Put plainly: Antibacterial activity against gyrA04, parC15 allele containing Streptococcus dysgalactiae subsp. equisimilis with GyrA S81F, S79F/ParC N91D mutant by CLSI […] method. Format: functional. (Agar diffusion results depend on both activity and mobility in agar.)
Assay [2] has the same test system. Put plainly: Antibacterial activity against gyrA01, parC14 allele containing Streptococcus dysgalactiae subsp. equisimilis with ParC N91D mutant by CLSI […] method. Format: functional.
The test system is the same in assay [3]. Put plainly: Antibacterial activity against gyrA01, parC17 allele containing Streptococcus dysgalactiae subsp. equisimilis with GyrA S79F, S79F/ParC N91D, P140S mutant by CLSI […] method. It counts as functional.
For assay [4] the test system is unchanged. Put plainly: Antibacterial activity against gyrA05, parC05 allele containing Streptococcus dysgalactiae subsp. equisimilis with GyrA D142N mutant by CLSI […] method. Format: functional.
The test system is the same in assay [5]. The assay is described as follows: Antibacterial activity against gyrA03, parC08 allele containing Streptococcus dysgalactiae subsp. equisimilis with GyrA E85K, S79F mutant by CLSI […] method. Format: functional.
The test system is the same in assay [6]. Put plainly: Antibacterial activity against gyrA01, parC allele containing Streptococcus dysgalactiae subsp. equisimilis with ParC N91D, P140S mutant by CLSI […] method. It counts as functional.
The test system is the same in assay [7]. The assay is described as follows: Antibacterial activity against gyrA01, parC19 allele containing Streptococcus dysgalactiae subsp. equisimilis with GyrA S79A/ParC N91D, P140S mutant by CLSI […] method. It counts as functional.
Assay [8] has the same test system. The assay is described as follows: Antibacterial activity against gyrA04, parC allele containing Streptococcus dysgalactiae subsp. equisimilis with GyrA S81F, S79F mutant by CLSI […] method. It counts as functional.
The test system is the same in assay [9]. The assay is described as follows: Antibacterial activity against gyrA01, parC12 allele containing Streptococcus dysgalactiae subsp. equisimilis with ParC G166E mutant by CLSI […] method. It counts as functional.
For assay [10] the test system is unchanged. The assay is described as follows: Antibacterial activity against gyrA04, parC13 allele containing Streptococcus dysgalactiae subsp. equisimilis with GyrA S81F, S79A mutant by CLSI […] method. Format: functional.
The test system is the same in assay [11]. Put plainly: Antibacterial activity against gyrA01, parC allele containing Streptococcus dysgalactiae subsp. equisimilis by CLSI […] method. Format: functional.
Assay [12] has the same test system. The assay is described as follows: Antibacterial activity against gyrA02, parC17 allele containing Streptococcus dysgalactiae subsp. equisimilis with GyrA S81Y, S79F/ParC N91D, P140S mutant by CLSI […] method.
The test system is the same in assay [13]. Put plainly: Antibacterial activity against gyrA01, parC03 allele containing Streptococcus dysgalactiae subsp. equisimilis with GyrA S79P mutant by CLSI […] method. Format: functional.
Assay [14] has the same test system. The assay is described as follows: Antibacterial activity against gyrA03, parC06 allele containing Streptococcus dysgalactiae subsp. equisimilis with GyrA E85K, S79Y mutant by CLSI […] method. It counts as functional.
For assay [15] the test system is unchanged. The assay is described as follows: Antibacterial activity against gyrA04, parC09 allele containing Streptococcus dysgalactiae subsp. equisimilis with GyrA S81F/ParC D83N mutant by CLSI […] method. Format: functional.
Assay [16] shares this test system. Put plainly: Antibacterial activity against gyrA01, parC04 allele containing Streptococcus dysgalactiae subsp. equisimilis with GyrA S79F mutant by CLSI […] method. It counts as functional.
Assay [17] shares this test system. The assay is described as follows: Antibacterial activity against gyrA04, parC14 allele containing Streptococcus dysgalactiae subsp. equisimilis with GyrA S81F/ParC N91D mutant by CLSI […] method. Format: functional.
Assay [18] has the same test system. Put plainly: Antibacterial activity against gyrA03, parC10 allele containing Streptococcus dysgalactiae subsp. equisimilis with GyrA E85K/ParC D83G mutant by CLSI […] method. Format: functional.
Assay [19] has the same test system. The assay is described as follows: Antibacterial activity against gyrA04, parC17 allele containing Streptococcus dysgalactiae subsp. equisimilis with GyrA S81F, S79F/ParC N91D, P140S mutant by CLSI […] method. It counts as functional.

As usually defined, the MIC is the smallest concentration in the dilution series that meets the test's criterion for growth inhibition. In the case of `C[C@H]1COc2c(N3CCN(C)CC3)c(F)cc3c(=O)c(C(=O)O)cn1c23.C[C@H]1COc2c(N3CCN(C)CC3)c(F)cc3c(=O)c(C(=O)O)cn1c23.O` [LEVOFLOXACIN], the MIC in assay [1] is greater than 32 mg/L; in assay [2] it was 0.5 mg/L; in assay [3], 1.5 mg/L; in [4], 0.38 mg/L; in assay [5], greater than 32 mg/L; in assay [6], 0.19 mg/L. The MIC in [7] is 2 mg/L; in assay [8], greater than 32 mg/L; in assay [9], 1 mg/L; in assay [10], 12 mg/L; in assay [11], 0.38 mg/L; in assay [12] it was greater than 32 mg/L. In addition, the MIC in [13] was 0.75 mg/L; in [14] it was greater than 32 mg/L; in assay [15], greater than 8 mg/L; in assay [16] it was 3 mg/L; in [17], 4 mg/L; in assay [18], 8 mg/L. The compound further registered an MIC in assay [19] greater than 32 mg/L.
